Key:
[1] = tested on: blood-brain barrier (BBB); experiment: Effect of branched chain fatty acids on BBB permeability by qualitative Evan's Blue (EB) evaluation in rats; type: in vivo, rat (male Sprague-Dawley)
Description: Evaluation of Effect of Branched Fatty Acids on Blood-brain Barrier Permeability
The experiments were carried out on male Sprague-Dawley rats weighing 250-320 gr. They were anesthetized with Rampun-Imalgen. The right common carotid artery was exposed.
The test compounds were dissolved in 0.1M phosphate buffered physiological saline (pH=7.4) at the following test concentrations: 1.6; 8; 20; 40; 200 and 1000 μg/ml.
The test compound was infused into the right common carotid artery at a rate of 6 ml/min. for 30 s. The control rats were infused with buffer. Evan's Blue (EB) solution at a concentration of […] (2 g Evan's Blue, 0.9 g NaCl in 100 ml water) was injected intravenously 50 minutes prior to the termination of the experiment.
In the case of 45 min experiment, five minutes prior to the infusion of the tested material, 4 ml/kg body wt dose of Evans Blue solution was injected intravenously.
At the end of the experimental time period the animals were perfused with 100 ml of saline solution through the heart and decapitated. The degree of BBB opening, in terms of extravasation of Evan's Blue albumin, was graded on the basis of visual assessment of the degree of staining of the brain ato the method of Rapoport et al. (Rapoport et al., 1980, Amer. J. Physiol. 258, 421-431), and the results are presented in Tables 1 and 2.
The results presented are qualitative with four degrees of Evan's Blue extravasation according to Rapoport et al. Minus signs represents no staining and three plus signs represent maximal staining.

[2] = tested on: mice; details: mouse, in vivo
[3] = Stability and solution appearance of DP-BFA; type: physicochemical
Description: DP-BFA is stored in a hermetically sealed dark vial filled with Argon at 5° C. for up to 3 months. The drug quantity was taken out the vial cap with a Teflon spatula. The compound was dissolved in sodium carbonate-sodium bicarbonate buffered saline solution adjusted to pH 8.8-9 at 37° C. A stock solution (12.8 mg/ml) was prepared and kept at 37° C. for 15 minutes. The solution was protected from light by covering it with aluminium foil. […] The desired concentration of DP-BFA was obtained by diluting the stock solution with the buffer. The solutions were filtered through a […] filter. The DP-BFA solutions were kept at 37° C. in vials protected from light, for no more than 6 hours.

[4] = tested on: bovine brain capillary endothelial cells in co-culture with astrocytes; experiment: Reversibility of DP-BFA effect on the paracellular permeability of the BBB in vitro; type: cell-based; details: for permeability of the monolayer for sucrose and inulin: 1 hour incubation
Description: In regard with the previous results, 0.16 mg/ml (paracellular opening after 1 hr) and 0.32 mg/ml (paracellular and transcellular openings after 1 hr) were chosen to study the reversibility of the effect of DP-BFA.
Endothelial cells are cocultured 12 days, on the twelfth culture day DP-BFA was added to the cultures for 1 hour, and then removed by replacement of the culture medium. The cultures then were maintained for a further 24 hours without DP-BFA, and subsequently assayed for paracellular permeability.
(§1) Permeability studies were carried out on the monolayer of endothelial cells, using two paracellular tracers: inulin-^3 H and sucrose-^14C.

[5] = Acute intravenous toxicity test in mice; type: in vivo; details: mouse, in vivo; intravenous administration to mice
Description: (§2) An acute intravenous toxicity test was performed to study the toxicity of the branched fatty acids in mice. The study included mortality and behavioral observations during three days. The rate of mortality is represented in the Table 5. M 3/14 caused mortality at a dose of 175 mg/kg; M3/12 at a dose of 75 mg/kg and M 3/10 at a dose of 100 mg/kg. Death was observed ten minutes after i.v. injection. In sub-lethal doses no significant behavior changes were observed.

[6] = tested on: mice; experiment: Acute intravenous toxicity test in mice; type: in vivo; details: i.v.
Description: as §2

[7] = tested on: bovine brain capillary endothelial cells in co-culture with astrocytes; experiment: Reversibility kinetic of DP-BFA effect on the paracellular permeability of the BBB in vitro; type: cell-based
Description: Endothelial cells are cocultured 12 days, and on the twelfth day DP-BFA was added to the cultures for one hour. The cultures were then washed to remove the test material and cultured for a further period of 3, 6 or 18 hours without DP-BFA.
as §1

[8] = tested on: bovine brain capillary endothelial cells (actin filaments); experiment: Actin staining of endothelial cells (fluorescent microscopy); type: cell-based
Description: To investigate the origin of this modification of the permeability, fluorescent microscopy studies were undertaken. Actin filaments were localized with bodipy phallo?din (explanations in section 7.1.).
The medium was removed and filter-grown endothelial cells were washed gently twice with Ringer-Hepes buffer.
Filter-grown endothelial cells were fixed in 4% PAF (paraformadehyde, in PHS buffer supplemented with MgCl2, 2 mM and EGTA, 10 mM) for 15 min at 4° C.
PAF was removed and filter-grown endothelial cells were washed once with PHEMS buffer. The filter-grown endothelial cells can be stored in PHEMS buffer at 4° C.
The filter-grown endothelial cells were cut up in eight pieces in a large PHEMS buffer drop and stored in PHEMS. One piece was permeabilized with acetone at -20° C. for 1 min then stored in PHEMS buffer.
Actin filaments were localized with bodipy phallo?din (Molecular Probes, Inc.). The stain was dissolved in 1.5 ml of methanol (200 units/ml) but was used at 5 units/ml. 5 μl of stock solution was evaporated and redissolved in 200 μl of PHS buffer.
1/8 of permeabilized filter-grown endothelial cells was covered with 25 to 50 μl of stain solution, 30 min at room temperature in darkroom. The filter bearing the endothelial cells was rinsed twice with PHEMS buffer, once with water.
The filter-grown endothelial cells were mounted cell-side up on a microscope slide in mowiol. And was examined on a Leitz DMR microscope using oil immersion objectives.

[9] = 0.16 mg/ml 1 hr, then 24 hrs without DP-BFA
[10] = 0.16 mg/ml 1 hr, then 3 hrs fresh medium
[11] = 0.16 mg/ml 1 hr, then 6 hrs fresh medium
[12] = 0.16 mg/ml 1 hr, then 18 hrs fresh medium

## CCCCCCCCCCCCCCC(CCC)C(=O)O (stereo not drawn) [M 3/14, 2-propylhexadecanoic acid]
[1]; 1.6 μg/ml (5 μM/ml), 180 min
  Visual EB: -
[1]; 8 μg/ml (25 μM/ml), 180 min
  Visual EB: +
[1]; 20 μg/ml (62.5 μM/ml), 180 min
  Visual EB: +
[1]; 40 μg/ml (125 μM/ml), 45 min
  Visual EB: ++
[1]; 40 μg/ml (125 μM/ml), 180 min
  Visual EB: ++
[1]; 125 μM, 180 min, intracarotid infusion
  Visual EB: ++
[1]; 200 μg/ml (625 μM/ml), 45 min
  Visual EB: +++
[1]; 625 μM, 45 min, intracarotid infusion
  Visual EB: +++
[1]; 1000 μg/ml (3125 μM/ml), 45 min
  Visual EB: +++
[1]; Table 1 compounds
  BBB permeability enhancement, potency ranking: most potent BBB permeability enhancer
[2]
  brain edema or general edema: no brain edema or general edema was observed
[3]; 12.8 mg/ml, carbonate-bicarbonate buffered saline, pH 8.8-9, 37° C.
  appearance of stock solution: completely transparent
[3]; white powder, sodium salt
  stability (sensitivity to light, CO2): sensitive to light and atmospheric CO2
[4]; [9]
  reversibility of paracellular permeability (clearance at 45 minutes): complete reversibility
[4]; 0.16 mg/ml
  permeability of the monolayer for sucrose and inulin: increase in the permeability
[4]; 0.32 mg/ml 1 hr, then 24 hrs without DP-BFA
  decrease of paracellular permeability (clearance at 45 minutes): 50%
[4]; 0.32 mg/ml
  permeability of the monolayer for sucrose and inulin: increase in the permeability
[4]; 0.32 mg/ml, 1 hr
  paracellular breakdown (opening of the tight junctions): paracellular breakdown (opening of the tight junctions)
[4]; higher concentrations
  reversibility of DP-BFA effect: Partial reversibility
[5]
  LD50 at 72 h: 150 to 175 mg/kg
[6]; 50 mg/kg, 5 mg/ml
  Mortality: 0/3
[6]; 100 mg/kg, 5 mg/ml
  Mortality: 0/3
[6]; 150 mg/kg, 10 mg/ml
  Mortality: 0/3
[6]; 175 mg/kg, 10 mg/ml
  Mortality: 3/3
[6]; mice, three days
  dose causing mortality: 175 mg/kg
[7]; [10]
  decrease in paracellular permeability for inulin (clearance at 45 minutes): 58%
  decrease in paracellular permeability for sucrose (clearance at 45 minutes): 56%
[7]; [11]
  decrease in paracellular permeability for inulin (clearance at 45 minutes): 58%
  decrease in paracellular permeability for sucrose (clearance at 45 minutes): 57%
[7]; [12]
  decrease in paracellular permeability for inulin (clearance at 45 minutes): 76%
  decrease in paracellular permeability for sucrose (clearance at 45 minutes): 72%
[7]; 0.16 mg/ml 1 hr, after 3, 6 and 18 hrs
  reversibility of DP-BFA effect: incomplete reversibility
[7]; after 3 hours, preliminary kinetic study
  paracellular transport after removal: a decrease in the paracellular transport could be observed
[8]; 0.08 mg/ml, 24 hrs
  endothelial cell morphology: significant morphological changes
  stress fibers (actin staining): increase in numerous densely packed stress fibers
[8]; [9]
  stress fibers (actin staining): less densely packed stress fibers
[8]; 0.16 mg/ml, 1 hr
  endothelial cell morphology: significant morphological changes
  stress fibers (actin staining): increase in numerous densely packed stress fibers
[8]; 0.16 mg/ml, 24 hrs
  interendothelial cell gaps: Interendothelial cell gaps in the monolayer could be seen
